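Results reflect a 48-hour exposure of cells in 96-well plates to compound at five concentrations. Here, GI50 denotes the concentration required for 50% inhibition of growth. TGI is the concentration that stops growth completely.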
Experiments:
Assay in all cases: inhibition of tumour cell growth, NCI panel, 48 h
MDA-MB-231 breast = system: MDA-MB-231 breast
SN12C renal = system: SN12C renal
UACC-257 melanoma = system: UACC-257 melanoma
HCC-2998 colon = system: HCC-2998 colon
SF-268 CNS = system: SF-268 CNS
PC-3 prostate = system: PC-3 prostate
OVCAR-4 ovarian = system: OVCAR-4 ovarian
SK-MEL-2 melanoma = system: SK-MEL-2 melanoma
MALME-3M melanoma = system: MALME-3M melanoma
COLO 205 colon = system: COLO 205 colon
TK-10 renal = system: TK-10 renal
RXF 393 renal = system: RXF 393 renal
IGROV1 ovarian = system: IGROV1 ovarian
UO-31 renal = system: UO-31 renal
BT-549 breast = system: BT-549 breast
NCI/ADR-RES ovarian = system: NCI/ADR-RES ovarian
CCRF-CEM leukemia = system: CCRF-CEM leukemia
786-0 renal = system: 786-0 renal
SK-MEL-5 melanoma = system: SK-MEL-5 melanoma
HOP-62 NSCLC = system: HOP-62 NSCLC
NCI-H460 lung = system: NCI-H460 lung
SNB-19 CNS = system: SNB-19 CNS
CAKI-1 renal = system: CAKI-1 renal
SF-295 CNS = system: SF-295 CNS
LOX IMVI melanoma = system: LOX IMVI melanoma
ACHN renal = system: ACHN renal
KM12 colon = system: KM12 colon
DU-145 prostate = system: DU-145 prostate
U251 CNS = system: U251 CNS
SK-OV-3 ovarian = system: SK-OV-3 ovarian
HCT-116 colon = system: HCT-116 colon
HT29 colon = system: HT29 colon
SK-MEL-28 melanoma = system: SK-MEL-28 melanoma
NCI-H226 lung = system: NCI-H226 lung
OVCAR-5 ovarian = system: OVCAR-5 ovarian
A498 renal = system: A498 renal
SW-620 colon = system: SW-620 colon
K-562 leukemia = system: K-562 leukemia
OVCAR-8 ovarian = system: OVCAR-8 ovarian
A549 NSCLC = system: A549 NSCLC
M14 melanoma = system: M14 melanoma
MCF7 breast = system: MCF7 breast
HCT-15 colon = system: HCT-15 colon
RPMI-8226 leukemia = system: RPMI-8226 leukemia
MDA-MB-435 = system: MDA-MB-435
HS 578T breast = system: HS 578T breast
OVCAR-3 ovarian = system: OVCAR-3 ovarian
T-47D breast = system: T-47D breast
EKVX NSCLC = system: EKVX NSCLC
HL-60(TB) leukemia = system: HL-60(TB) leukemia
SF-539 CNS = system: SF-539 CNS
HOP-92 NSCLC = system: HOP-92 NSCLC
NCI-H23 lung = system: NCI-H23 lung
UACC-62 melanoma = system: UACC-62 melanoma
SR leukemia = system: SR leukemia
MOLT-4 leukemia = system: MOLT-4 leukemia
SNB-75 CNS = system: SNB-75 CNS
NCI-H522 lung = system: NCI-H522 lung

CCCN(CCC)CCCNC(=O)c1cc2c(-c3ccc(OC)c(OC)c3)nn(C)c2s1
GI50 (MDA-MB-231 breast): 18.8 µM | TGI (MDA-MB-231 breast): 41.3 µM | GI50 (SN12C renal): 54.9 µM | TGI (SN12C renal): > 100 µM | GI50 (UACC-257 melanoma): 17.3 µM | TGI (UACC-257 melanoma): 34.4 µM | GI50 (HCC-2998 colon): 18.8 µM | TGI (HCC-2998 colon): 37.7 µM | GI50 (SF-268 CNS): 31.1 µM | TGI (SF-268 CNS): > 100 µM | GI50 (PC-3 prostate): 33.8 µM | TGI (PC-3 prostate): > 100 µM | GI50 (OVCAR-4 ovarian): 23.5 µM | TGI (OVCAR-4 ovarian): > 100 µM | GI50 (SK-MEL-2 melanoma): 25.2 µM | TGI (SK-MEL-2 melanoma): 72.9 µM | GI50 (MALME-3M melanoma): 18.4 µM | TGI (MALME-3M melanoma): 35.8 µM | GI50 (COLO 205 colon): 13.6 µM | TGI (COLO 205 colon): 30.3 µM | GI50 (TK-10 renal): 40.9 µM | TGI (TK-10 renal): > 100 µM | GI50 (RXF 393 renal): 10.7 µM | TGI (RXF 393 renal): 31.1 µM | GI50 (IGROV1 ovarian): 43.3 µM | TGI (IGROV1 ovarian): > 100 µM | GI50 (UO-31 renal): 13.6 µM | TGI (UO-31 renal): 47 µM | GI50 (BT-549 breast): 20.9 µM | TGI (BT-549 breast): 87 µM | GI50 (NCI/ADR-RES ovarian): 33.4 µM | TGI (NCI/ADR-RES ovarian): > 100 µM | GI50 (CCRF-CEM leukemia): 20.3 µM | TGI (CCRF-CEM leukemia): 65.6 µM | GI50 (786-0 renal): 17.9 µM | TGI (786-0 renal): 91 µM | GI50 (SK-MEL-5 melanoma): 15.4 µM | TGI (SK-MEL-5 melanoma): 29 µM | GI50 (HOP-62 NSCLC): 37.2 µM | TGI (HOP-62 NSCLC): > 100 µM | GI50 (NCI-H460 lung): 32.6 µM | TGI (NCI-H460 lung): > 100 µM | GI50 (SNB-19 CNS): 34.2 µM | TGI (SNB-19 CNS): > 100 µM | GI50 (CAKI-1 renal): 27.1 µM | TGI (CAKI-1 renal): > 100 µM | GI50 (SF-295 CNS): 21.6 µM | TGI (SF-295 CNS): 49.4 µM | GI50 (LOX IMVI melanoma): 15.1 µM | TGI (LOX IMVI melanoma): 31 µM | GI50 (ACHN renal): 17.2 µM | TGI (ACHN renal): 39.5 µM | GI50 (KM12 colon): 26 µM | TGI (KM12 colon): > 100 µM | GI50 (DU-145 prostate): 39.1 µM | TGI (DU-145 prostate): > 100 µM | GI50 (U251 CNS): 25.3 µM | TGI (U251 CNS): > 100 µM | GI50 (SK-OV-3 ovarian): 44.3 µM | TGI (SK-OV-3 ovarian): > 100 µM | GI50 (HCT-116 colon): 17.7 µM | TGI (HCT-116 colon): 55.3 µM | GI50 (HT29 colon): 14.5 µM | TGI (HT29 colon): 45.3 µM | GI50 (SK-MEL-28 melanoma): 16.6 µM | TGI (SK-MEL-28 melanoma): 32.1 µM | GI50 (NCI-H226 lung): > 100 µM | TGI (NCI-H226 lung): > 100 µM | GI50 (OVCAR-5 ovarian): 50.4 µM | TGI (OVCAR-5 ovarian): > 100 µM | GI50 (A498 renal): 3.06 µM | TGI (A498 renal): > 100 µM | GI50 (SW-620 colon): 24.5 µM | TGI (SW-620 colon): 82.6 µM | GI50 (K-562 leukemia): 21.5 µM | TGI (K-562 leukemia): 66.2 µM | GI50 (OVCAR-8 ovarian): 36.9 µM | TGI (OVCAR-8 ovarian): > 100 µM | GI50 (A549 NSCLC): 36.5 µM | TGI (A549 NSCLC): > 100 µM | GI50 (M14 melanoma): 17.2 µM | TGI (M14 melanoma): 35 µM | GI50 (MCF7 breast): 18.2 µM | TGI (MCF7 breast): 42.1 µM | GI50 (HCT-15 colon): 25 µM | TGI (HCT-15 colon): > 100 µM | GI50 (RPMI-8226 leukemia): 14.6 µM | TGI (RPMI-8226 leukemia): 42.2 µM | GI50 (MDA-MB-435): 14.1 µM | TGI (MDA-MB-435): 31.8 µM | GI50 (HS 578T breast): 22.9 µM | TGI (HS 578T breast): > 100 µM | GI50 (OVCAR-3 ovarian): 21.5 µM | TGI (OVCAR-3 ovarian): > 100 µM | GI50 (T-47D breast): 27.5 µM | TGI (T-47D breast): 98.7 µM | GI50 (EKVX NSCLC): 71.7 µM | TGI (EKVX NSCLC): > 100 µM | GI50 (HL-60(TB) leukemia): 20.7 µM | TGI (HL-60(TB) leukemia): 46.2 µM | GI50 (SF-539 CNS): 16 µM | TGI (SF-539 CNS): 31.1 µM | GI50 (HOP-92 NSCLC): 6.15 µM | TGI (HOP-92 NSCLC): 46.9 µM | GI50 (NCI-H23 lung): 58 µM | TGI (NCI-H23 lung): > 100 µM | GI50 (UACC-62 melanoma): 16.9 µM | TGI (UACC-62 melanoma): 33 µM | GI50 (SR leukemia): 11.9 µM | TGI (SR leukemia): 58.9 µM | GI50 (MOLT-4 leukemia): 17.6 µM | TGI (MOLT-4 leukemia): 59.5 µM | GI50 (SNB-75 CNS): 12.3 µM | TGI (SNB-75 CNS): 40.5 µM | GI50 (NCI-H522 lung): 16.6 µM | TGI (NCI-H522 lung): 41.3 µM
